Experiments:
Assay type in all cases: in vivo
[1] = tested on: bermudagrass (Cynodon dactylon); experiment: Test B pre-/postemergence plant response; conditions: for Bermudagrass plant response rating: 8 g ai/ha
Summary of the method: (§1)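 Visual scoring from 0 (no effect) to 100 (complete control) against untreated controls was done 13 to 15 days after greenhouse treatment. Chemicals were formulated in a surfactant-containing non-phytotoxic solvent and applied to soil preemergence or to 1- to 4-leaf (2-18 cm) plants postemergence.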

[2] = tested on: morningglory (Ipomoea coccinea); experiment: Test B pre-/postemergence plant response; conditions: for Morningglory plant response rating: 8 g ai/ha
Summary of the method: as §1

[3] = tested on: lambsquarters (Chenopodium album); experiment: Test B pre-/postemergence plant response; conditions: for Lambsquarters plant response rating: 8 g ai/ha
Summary of the method: as §1

[4] = tested on: giant foxtail (Setaria faberii); experiment: Test B pre-/postemergence plant response; conditions: for Foxtail, Giant plant response rating: 8 g ai/ha
Summary of the method: as §1

[5] = tested on: blackgrass (Alopecurus myosuroides); experiment: Test B pre-/postemergence plant response; conditions: for Blackgrass plant response rating: 8 g ai/ha
Summary of the method: as §1

[6] = tested on: wild oat (Avena fatua); experiment: Test B pre-/postemergence plant response; conditions: for Oat, Wild plant response rating: 8 g ai/ha
Summary of the method: as §1

[7] = tested on: yellow nutsedge (Cyperus esculentus); experiment: Test B pre-/postemergence plant response; conditions: for Nutsedge, Yellow plant response rating: 8 g ai/ha
Summary of the method: as §1

[8] = tested on: eastern black (E.B.) nightshade (Solanum ptycanthum); experiment: Test B pre-/postemergence plant response; conditions: Preemergence
Summary of the method: as §1

[9] = tested on: velvetleaf (Abutilon theophrasti); experiment: Test B pre-/postemergence plant response; conditions: for Velvetleaf plant response rating: 8 g ai/ha
Summary of the method: as §1

[10] = tested on: corn (Zea mays); experiment: Test B pre-/postemergence plant response; conditions: for Corn plant response rating: 8 g ai/ha
Summary of the method: as §1

[11] = tested on: barnyardgrass (Echinochloa crus-galli); experiment: Test B flooded paddy test plant response
Summary of the method: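 Compounds were added directly to paddy water over 2-leaf-stage plants in pots flooded 3 cm above soil, water depth maintained. Visual injury scored against controls after 13 to 15 days in greenhouse, 0 (none) to 100 (complete control); dash indicates no result.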

[12] = tested on: windgrass (Apera spica-venti); experiment: Test B postemergence plant response; conditions: for Plant response rating, Windgrass: Postemergence
Summary of the method: (§2)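 Visual injury ratings on a 0–100 scale, where 100 means complete control, were made 13 to 15 days after postemergence treatment of greenhouse-grown plants at the 1- to 4-leaf stage.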

[13] = tested on: winter barley (Hordeum vulgare); experiment: Test B postemergence plant response; conditions: for Plant response rating, Barley: Postemergence, scale 0 to 100, 0 no effect, 100 complete control
Summary of the method: as §2

[14] = tested on: chickweed (Stellaria media); experiment: Test B postemergence plant response; conditions: for Plant response rating, Chickweed: Postemergence
Summary of the method: as §2

[15] = tested on: canarygrass (Phalaris minor); experiment: Test B postemergence plant response; conditions: for Plant response rating, Canarygrass: Postemergence
Summary of the method: as §2

[16] = Postemergence, 16 g ai/ha, scale 0 to 100
[17] = Postemergence, 31 g ai/ha, scale 0 to 100, 0 no effect, 100 complete control
[18] = Postemergence, 62 g ai/ha, scale 0 to 100, 0 no effect, 100 complete control
[19] = Preemergence, 16 g ai/ha, scale 0 to 100 (0 no effect, 100 complete control)
[20] = Preemergence, 31 g ai/ha, 0 to 100 scale, 0 no effect, 100 complete control
[21] = Preemergence, 62 g ai/ha, scale 0 to 100
[22] = 8 g ai/ha, postemergence, 0-100 scale
[23] = 62 g ai/ha, scale 0 to 100, 0 no effect, 100 complete control
[24] = 31 g ai/ha, scale 0 to 100, 0 no effect, 100 complete control

For `COC(=O)Oc1cnn(C)c(=O)c1-n1nc(-c2ccc(Cl)cc2)cc1C` [Compound 33], the “Bermudagrass plant response rating” value ([1]; postemergence, 0-100 scale) was 70, the “Plant response rating, Bermudagrass” value [1, 16] was 100 and the “Plant response rating, Bermudagrass” value [1, 17] was 100. For the same compound, the “Plant response rating, Bermudagrass” value [1, 18] was 100, the “Bermudagrass plant response rating” value ([1]; Preemergence, scale 0 to 100 (0 no effect, 100 complete control)) was 80 and the “Plant response rating, Bermudagrass” value [1, 19] was 98. The “Plant response rating, Bermudagrass” value [1, 20] was 100, the “Plant response rating, Bermudagrass” value [1, 21] was 100 and the “Morningglory plant response rating” value ([2]; postemergence, 0-100 scale) was 0. The “Plant response rating, Morningglory” value [2, 16] was 0, the “Plant response rating, Morningglory” value [2, 17] was 0 and the “Plant response rating, Morningglory” value [2, 18] was 0. The “Plant response rating, Morningglory” value [2, 19] was 0, the “Plant response rating, Morningglory” value [2, 20] was 0 and the “Plant response rating, Morningglory” value [2, 21] was 0. For the same compound, the “Morningglory plant response rating” value ([2]; Preemergence, scale 0 to 100) was 0, the “Lambsquarters plant response rating” value ([3]; postemergence, 0-100 scale) was 0 and the “Plant response rating, Lambsquarters” value [3, 16] was 0. The “Plant response rating, Lambsquarters” value [3, 17] was 0, the “Plant response rating, Lambsquarters” value [3, 18] was 0 and the “Plant response rating, Lambsquarters” value [3, 19] was 0. The “Plant response rating, Lambsquarters” value [3, 20] was 0, the “Plant response rating, Lambsquarters” value [3, 21] was 0 and the “Lambsquarters plant response rating” value ([3]; Preemergence, scale 0 to 100) was 0. The “Foxtail, Giant plant response rating” value ([4]; postemergence, 0-100 scale) was 100, the “Plant response rating, Foxtail, Giant” value [4, 16] was 100 and the “Plant response rating, Foxtail, Giant” value [4, 17] was 100. For the same compound, the “Plant response rating, Foxtail, Giant” value [4, 18] was 100, the “Plant response rating, Foxtail, Giant” value [4, 19] was 100 and the “Plant response rating, Foxtail, Giant” value [4, 20] was 100. For the same compound, the “Plant response rating, Foxtail, Giant” value [4, 21] was 100, the “Foxtail, Giant plant response rating” value ([4]; Preemergence, scale 0 to 100) was 100 and the “Blackgrass plant response rating” value ([5]; postemergence, 0-100 scale) was 70. For the same compound, the “Plant response rating, Blackgrass” value [5, 16] was 70, the “Plant response rating, Blackgrass” value [5, 17] was 80 and the “Plant response rating, Blackgrass” value [5, 18] was 95. For the same compound, the “Plant response rating, Blackgrass” value [5, 19] was 100, the “Plant response rating, Blackgrass” value [5, 20] was 100 and the “Plant response rating, Blackgrass” value [5, 21] was 100. The “Blackgrass plant response rating” value ([5]; Preemergence, scale 0 to 100) was 60, the “Oat, Wild plant response rating” value ([6]; postemergence, 0-100 scale) was 90 and the “Plant response rating, Oat, Wild” value [6, 16] was 95. The “Plant response rating, Oat, Wild” value [6, 17] was 95, the “Plant response rating, Oat, Wild” value [6, 18] was 98 and the “Plant response rating, Oat, Wild” value [6, 19] was 80. The “Plant response rating, Oat, Wild” value [6, 20] was 80, the “Plant response rating, Oat, Wild” value [6, 21] was 90 and the “Oat, Wild plant response rating” value ([6]; Preemergence, scale 0 to 100) was 70. For the same compound, the “Nutsedge, Yellow plant response rating” value ([7]; postemergence, 0-100 scale) was 0, the “Plant response rating, Nutsedge, Yellow” value [7, 16] was 0 and the “Plant response rating, Nutsedge, Yellow” value [7, 17] was 0. The “Plant response rating, Nutsedge, Yellow” value [7, 18] was 0, the “Plant response rating, Nutsedge, Yellow” value [7, 19] was 0 and the “Plant response rating, Nutsedge, Yellow” value [7, 20] was 0. For the same compound, the “Plant response rating, Nutsedge, Yellow” value [7, 21] was 0, the “Nutsedge, Yellow plant response rating” value ([7]; Preemergence, scale 0 to 100) was 0 and the “Plant response rating, Nightshade, E. B.” value ([8]; 16 g ai/ha, scale 0 to 100 (0 no effect, 100 complete control)) was 0. For the same compound, the “Plant response rating, Nightshade, E. B.” value ([8]; 31 g ai/ha, 0 to 100 scale, 0 no effect, 100 complete control) was 0, the “Plant response rating, Nightshade, E. B.” value ([8]; 62 g ai/ha, scale 0 to 100) was 0 and the “Nightshade, E. B. plant response rating” value ([8]; 8 g ai/ha, scale 0 to 100) was 0. The “Velvetleaf plant response rating” value ([9]; postemergence, 0-100 scale) was 0, the “Plant response rating, Velvetleaf” value [9, 16] was 0 and the “Plant response rating, Velvetleaf” value [9, 18] was 5. For the same compound, the “Plant response rating, Velvetleaf” value [9, 19] was 0, the “Plant response rating, Velvetleaf” value [9, 20] was 0 and the “Velvetleaf plant response rating” value ([9]; Preemergence, scale 0 to 100) was 0. The “Corn plant response rating” value ([10]; postemergence, 0-100 scale) was 80, the “Plant response rating, Corn” value [10, 16] was 95 and the “Plant response rating, Corn” value [10, 17] was 100. For the same compound, the “Plant response rating, Corn” value [10, 18] was 100, the “Plant response rating, Corn” value [10, 19] was 85 and the “Plant response rating, Corn” value [10, 20] was 90. For the same compound, the “Plant response rating, Corn” value [10, 21] was 95, the “Corn plant response rating” value ([10]; Preemergence, scale 0 to 100) was 50 and the “Plant response rating, Barnyardgrass” value ([11]; Flood (flooded paddy test), 62 g ai/ha, scale 0 to 100, 0 no effect, 100 complete control) was 60. The “Plant response rating, Barnyardgrass” value ([11]; Flood (flooded paddy test), 125 g ai/ha, scale 0 to 100, 0 no effect, 100 complete control) was 85, the “Plant response rating, Barnyardgrass” value ([11]; Flood (flooded paddy test), 250 g ai/ha, scale 0 to 100, 0 no effect, 100 complete control) was 100 and the “Plant response rating, Barnyardgrass” value ([11]; Flood, 31 g ai/ha, scale 0 to 100) was 30. For the same compound, the “Windgrass plant response rating” value [12, 22] was 10, the “Plant response rating, Windgrass” value ([12]; 16 g ai/ha, scale 0 to 100) was 50 and the “Plant response rating, Windgrass” value [12, 23] was 70. For the same compound, the “Barley plant response rating” value [13, 22] was 0, the “Plant response rating, Barley” value ([13]; 16 g ai/ha) was 25 and the “Plant response rating, Barley” value ([13]; 31 g ai/ha) was 30. The “Plant response rating, Barley” value ([13]; 62 g ai/ha) was 30, the “Chickweed plant response rating” value [14, 22] was 0 and the “Plant response rating, Chickweed” value ([14]; 16 g ai/ha, scale 0 to 100) was 0. For the same compound, the “Plant response rating, Chickweed” value [14, 24] was 0, the “Plant response rating, Chickweed” value [14, 23] was 0 and the “Canarygrass plant response rating” value [15, 22] was 0. The “Plant response rating, Canarygrass” value ([15]; 16 g ai/ha, scale 0 to 100) was 35 and the “Plant response rating, Canarygrass” value [15, 24] was 80.

— US20100267561A1, “HERBICIDAL PYRIDAZINONE DERIVATIVES” (priority 2007, published 2010)
